{
  "source": "patent US6417178B1",
  "about": "“Amyloid binding nitrogen-linked compounds for the antemortem diagnosis of alzheimer's disease, in vivo imaging and prevention of amyloid deposits” (University of Pittsburgh, priority 1994, dated 2002)",
  "key": {"[1]": {"assay": "Tissue levels after i.v. injection of [14C]Chrysamine G in mice (blood-brain barrier, metabolism)", "assay_type": "in vivo, Swiss-Webster mice", "conditions": "brain and liver extracted 60 min after i.v. injection", "method": "Mice were sacrificed by cervical dislocation at intervals of 15 min, 35 min, 1 hr, 4 hr, and 24 hr after injection. The carotid blood, brain, liver, and kidneys were rapidly obtained, weighed, and homogenized in distilled/deionized H2O using a ground glass homogenizer. An aliquot was weighed into an 18.0 ml plastic scintillation vial (Beckman Poly-Q-Vial) and counted after addition of 10.0 ml of scintillation cocktail (Cytoscint®-ES (ICN)) and overnight equilibration.\nBrain and liver were then removed and extracted with a Folch procedure. Folch et al., J. Biol. Chem. 226: 447 (1957). In both tissues, over 95% of the extracted radioactivity was contained in the organic layer. The organic layer was evaporated to dryness, resuspended in a minimal amount of 10% methanol/90% ACN, and injected onto a silica column (Prep Nova Pak HR Silica, 7.8×300 mm, Waters, Milford, Mass.) and eluted isocratically with the same solvent. Under these conditions, 99% of the radioactivity is eluted in the solvent front, but most lipids are retained longer, making the fraction eluting in the solvent front suitable for injection onto the reverse-phase C4 column system described above. […] One minute fractions were collected and counted after addition of 10 ml of Cytoscint®-ES."}, "Aβ (10-43)": {"biological_target": "Aβ (10-43) (Homo sapiens, UniProt P05067)", "sequence (P05067 681-714)": "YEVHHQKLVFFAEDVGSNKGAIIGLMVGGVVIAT", "assay": "Kinetics of [14C]Chrysamine G binding to Aβ (10-43)", "method": "This mixture was vortexed and incubated for 30 min at room temperature.\nBennett, J. P. and Yamamura, H. I. in NEUROTRANSMITTER RECEPTOR BINDING (N.Y.: Raven Press 1985) pp. 61-89. […] The curve in FIG. 6C follows the equation: […]"}, "in vivo": {"assay": "in vivo", "conditions": "mouse"}, "[2]": {"biological_target": "T1, synthetic peptide, Aβ (10-43) (Homo sapiens, UniProt P05067)", "T1 construct": "The 10-43 amino acid fragment of Aβ was synthesized; made in house; host or cells: chemical (FMOC) peptide synthesis, no expression host", "T1 sequence (P05067 681-714)": "as above", "assay": "Inhibition of [14C]Chrysamine G binding to Aβ (10-43)", "method": "(§1) Binding assays were performed in 12×75 mm borosilicate glass tubes. […] To the above solution, 25 μl of a 0.36 mg/ml suspension of Aβ (10-43) in H2O was added and 10% ethanol was added to bring the volume to 950 μl. […] The binding mixture was incubated for 30 min at room temperature.\nKi is defined as IC50/(1+[L]/KD ), where [L] is the concentration of [^14C]"}, "[3]": {"assay": "Octanol/water partitioning", "assay_type": "physicochemical", "conditions": "from partition coefficients"}, "[4]": {"test_system": "control brain homogenates", "assay": "[14C]CG binding to control brain homogenates", "parameters": "species or system human"}, "[5]": {"test_system": "rat pheochromocytoma (PC-12) cells", "method": "Rat pheochromocytoma cells (PC-12) were grown in RPMI 1640 media with 10% fetal bovine serum. Approximately 5,000 exponentially growing cells were plated in 96-well plates in a volume of 100 μl of media and allowed to incubate at 37° C. overnight. […] The cells were incubated for 24 hrs prior to the addition of 13.3 μl of 5 mg/ml MTT (3,(4,5-dimethylthiazol-2-yl)2,5-diphenyltetrazolium bromide) in sterile phosphate buffered saline. After 4.5 hrs at 37° C., 100 μl of extraction buffer (20% w/v SDS in 50% DMF/water; pH adjusted to 4.7 with 2.5% of 80% acetic acid and 2.5% 1N HCl) was added and the plates were incubated overnight. Hansen et al., J. Immunol. Methods 119: 203 (1989). Color development was then measured at 560 nm. Maximum viability was defined as the absorbance of control wells to which only the 20 μl of distilled, deionized H2O was added. Maximum toxicity was defined by wells in which the cells were lysed by addition of 0.1% (final concentration) of Triton X-100."}, "AD brain homogenates [6]": {"test_system": "AD brain homogenates", "assay": "[14C]CG binding to AD brain homogenates", "conditions": "for total binding, AD: high and low-plaque AD brains combined"}, "AD brain homogenates [7]": {"biological_target": "AD brain homogenates (Homo sapiens, UniProt P05067)", "sequence (P05067 18-770)": "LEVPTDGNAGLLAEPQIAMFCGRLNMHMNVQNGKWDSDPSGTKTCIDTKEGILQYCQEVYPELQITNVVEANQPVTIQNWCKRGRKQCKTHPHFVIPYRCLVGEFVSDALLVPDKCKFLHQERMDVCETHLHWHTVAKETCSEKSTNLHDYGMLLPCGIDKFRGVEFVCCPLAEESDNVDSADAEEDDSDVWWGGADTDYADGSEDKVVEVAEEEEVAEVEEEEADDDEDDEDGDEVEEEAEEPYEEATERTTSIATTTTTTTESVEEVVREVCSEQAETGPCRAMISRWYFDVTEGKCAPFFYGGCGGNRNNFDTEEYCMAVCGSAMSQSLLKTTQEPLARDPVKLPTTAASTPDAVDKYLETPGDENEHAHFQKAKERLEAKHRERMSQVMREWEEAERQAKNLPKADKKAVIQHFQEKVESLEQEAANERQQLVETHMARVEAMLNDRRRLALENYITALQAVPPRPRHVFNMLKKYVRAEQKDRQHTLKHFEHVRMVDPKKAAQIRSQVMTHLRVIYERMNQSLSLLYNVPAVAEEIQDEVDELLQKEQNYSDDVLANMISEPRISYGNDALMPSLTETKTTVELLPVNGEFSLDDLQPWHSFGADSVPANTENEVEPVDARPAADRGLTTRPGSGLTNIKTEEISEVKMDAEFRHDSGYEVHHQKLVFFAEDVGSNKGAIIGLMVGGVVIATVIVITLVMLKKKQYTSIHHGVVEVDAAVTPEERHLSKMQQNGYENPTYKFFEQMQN", "assay": "[14C]CG binding to AD brain homogenates"}, "[8]": {"test_system": "Down's syndrome brain samples", "assay": "[14C]Chrysamine G binding to Down's syndrome brain samples", "parameters": "species or system human", "conditions": "two patients; ratio to cerebellum (FIG. 9C)", "description": "Down's syndrome patients all develop deposits of Aβ by their fourth decade and many develop AD. Wisniewski et al., Neurology 35: 957 (1985); Schapiro et al., Neurobiol. Aging 13, 723 (1992)."}, "[9]": {"biological_target": "synthetic Aβ (10-43) peptide (Homo sapiens, UniProt P05067)", "sequence (P05067 681-714)": "as the sequence (P05067 681-714) above", "assay": "Scatchard analysis of Chrysamine G binding to synthetic Aβ (10-43)", "description": "Hilbich et al., J. Mol. Biol. 218: 149 (1991). The 10-43 amino acid fragment of Aβ was synthesized with 9-fluorenylmethyl chloroformate (FMOC) chemistry by the Peptide Synthesis Facility of the University of Pittsburgh. […] The peptide was further purified by the method of Hilbich et al. which, in brief, consisted of sequential size-exclusion chromatography on a Biogel P10 column (2×180 cm, 200-400 mesh, Biorad, Richmond, Calif.) in 70% formic acid followed by a second elution through a Biogel P4 column (2×180 cm, 200-400 mesh) in 1M acetic acid. Hilbich et al., J. Mol. Biol. 218: 149 (1991). The peptide was lyophilized and stored at −80° C. until used in the binding assays.\nas §1"}, "[10]": {"conditions": "PC-12 cells, Aβ (25-35), MTT reduction"}},
  "note": "Values joined by “and” are separate entries in the source; they are usually repeats but may differ in a detail not shown here. Identical values can stand only once. Like-named read-outs stand apart in the source and are kept apart here.",
  "data": [
    {"smiles": "O=C(O)c1cc(N=Nc2ccc(-c3ccc(N=Nc4ccc(O)c(C(=O)O)c4)cc3)cc2)ccc1O", "note": "[Chrysamine G, 4,4′-bis(3-carboxy-4-hydroxyphenylazo)-biphenyl]", "values": [
      {"measurement": "recovered radioactivity co-eluting with authentic Chrysamine G on reverse phase HPLC", "setting": "[1]", "value": "> 95", "unit": "%"},
      {"measurement": "time by which association is essentially complete", "setting": "Aβ (10-43); [Chrysamine G]=112 μM", "value": "≤ 1", "unit": "min"},
      {"measurement": "Kd", "setting": "Aβ (10-43); from kinetic constants, read-out: KD=k−1/k1", "value": 0.34, "unit": "µM"},
      {"measurement": "LD50 at 72 h", "setting": "in vivo", "value": "> 100", "unit": "mg/kg"},
      {"measurement": "Ki", "setting": "[2]; Ki for inhibition of [14C]Chrysamine G binding to Aβ (10-43), Ki=IC50/(1+[L]/KD), KD 0.26 μM", "value": "0.37 ± 0.04", "unit": "µM"},
      {"measurement": "energy of binding", "setting": "[2]; ΔG=−RT ln Keq, Keq=1/KD≈1/Ki", "value": "roughly 38 KJ/mole"},
      {"measurement": "times more lipophilic than Congo red", "setting": "[3]", "value": "approximately 90"},
      {"measurement": "Bmax, typical control brain sample (FIG. 4B)", "setting": "[4]", "value": 614, "unit": "fmol/μg protein"},
      {"measurement": "total binding, Control", "setting": "[4]; Cerebellum", "value": "75 ± 13 (n = 8) fmol/μg protein"},
      {"measurement": "Bmax (pmol/μg prot)", "setting": "[4]; Control (n = 6)", "value": "0.576 ± .092 pmol/μg prot"},
      {"measurement": "Kd", "setting": "[4]; Control (n = 6), read-out: KD", "value": "0.47 ± 0.049", "unit": "µM"},
      {"measurement": "total binding, Control", "setting": "[4]; Frontal Pole", "value": "58 ± 8 (n = 6) fmol/μg protein"},
      {"measurement": "total binding, Control", "setting": "[4]; Head of Caudate", "value": "73 ± 11 (n = 4) fmol/μg protein"},
      {"measurement": "total binding, Control", "setting": "[4]; Inferior Parietal", "value": "76 ± 13 (n = 8) fmol/μg protein"},
      {"measurement": "total binding, Control", "setting": "[4]; Occipital", "value": "64 ± 16 (n = 8) fmol/μg protein"},
      {"measurement": "total binding, Control", "setting": "[4]; Superior Temporal", "value": "66 ± 17 (n = 8) fmol/μg protein"},
      {"measurement": "total binding, Control", "setting": "[4]; Superior/Middle Frontal", "value": "54 ± 10 (n = 8) fmol/μg protein"},
      {"measurement": "Kd", "setting": "[4]; read-out: KD, typical control brain sample (FIG. 4B)", "value": 0.48, "unit": "µM"},
      {"measurement": "MTT reduction with compound alone versus control", "setting": "[5]", "value": "no significant difference"},
      {"measurement": "concentration at which the protective effect is evident", "setting": "[5]; [10]", "value": 0.2, "unit": "µM"},
      {"measurement": "concentration range showing effects", "setting": "[5]; [10]", "value": "0.1 to 1.0", "unit": "µM"},
      {"measurement": "effect on toxicity induced by 1 μM Aβ (25-35)", "setting": "[5]; PC-12 cells, MTT reduction (FIG. 14)", "value": "protective effects at 0.1 and 1 μM"},
      {"measurement": "saturable (specific) binding as share of total binding", "setting": "AD brain homogenates [6]; AD brain homogenates", "value": "60-80%"},
      {"measurement": "total binding, AD", "setting": "AD brain homogenates [6]; Cerebellum", "value": "73 ± 9 (n = 11) fmol/μg protein"},
      {"measurement": "total binding, AD", "setting": "AD brain homogenates [6]; Frontal Pole", "value": "124 ± 16 (n = 10) fmol/μg protein"},
      {"measurement": "total binding, AD", "setting": "AD brain homogenates [6]; Head of Caudate", "value": "123 ± 22 (n = 7) fmol/μg protein"},
      {"measurement": "total binding, AD", "setting": "AD brain homogenates [6]; Inferior Parietal", "value": "137 ± 19 (n = 11) fmol/μg protein"},
      {"measurement": "total binding, AD", "setting": "AD brain homogenates [6]; Occipital", "value": "95 ± 12 (n = 11) fmol/μg protein"},
      {"measurement": "total binding, AD", "setting": "AD brain homogenates [6]; Superior Temporal", "value": "121 ± 14 (n = 11) fmol/μg protein"},
      {"measurement": "total binding, AD", "setting": "AD brain homogenates [6]; Superior/Middle Frontal", "value": "130 ± 21 (n = 11) fmol/μg protein"},
      {"measurement": "Bmax in AD brain higher than control", "setting": "AD brain homogenates [6]; not significant (p=0.09)", "value": 36, "unit": "%"},
      {"measurement": "KD in AD brain lower than control", "setting": "AD brain homogenates [6]; not significant (p=0.29)", "value": 16, "unit": "%"},
      {"measurement": "Bmax (pmol/μg prot)", "setting": "AD brain homogenates [7]; AD (n = 5)", "value": "0.784 ± .061 pmol/μg prot"},
      {"measurement": "Bmax, typical AD brain sample (FIG. 4B)", "setting": "AD brain homogenates [7]; AD brain sample with 48 NP/×200 magnification", "value": 790, "unit": "fmol/μg protein"},
      {"measurement": "binding in Down's syndrome brain compared with control", "setting": "[8]", "value": "above the control range"},
      {"measurement": "Kd", "setting": "[9]; Scatchard, two independent binding site model, read-out: KD, higher affinity component", "value": "0.257 µM and 0.26 µM"},
      {"measurement": "Bmax, higher affinity component", "setting": "[9]; Scatchard, two-site model", "value": "3.18 nmoles Chrysamine G/mg Aβ (10-43)"},
      {"measurement": "Bmax, lower affinity component", "setting": "[9]; Scatchard, two-site model, less well defined", "value": "18.7 nmoles Chrysamine G/mg Aβ (10-43)"},
      {"measurement": "Kd", "setting": "[9]; whether measured by Scatchard analysis, kinetic methods, or inhibition of binding, read-out: dissociation constant", "value": "0.25 to 0.4", "unit": "µM"}
    ]}
  ]
}
